The values below come from patent US6407125B1, “Pharmacological agent and method of treatment” (Novactyl, Inc., priority 1995, dated 2002).

A short description of data set [1]: Stability experiments as preservative in foods and on fresh fruits. Type of data set: physicochemical. As to conditions: in foods and on the surface of fresh fruits. An excerpt: The chelating agents of the present invention can be used as preservatives in perishable items such as foods and pharmaceuticals and to prevent fungal growth on the surface of fresh fruits. Presently chemicals such as citrashine orthophenilphenol thiabendazole are used. […] Microbial and fungal growth is inhibited while the food components are unaffected. The preservative of the present invention has less likelihood of toxicity or untoward reactions if ingested that the present, complex chemical antifungals. The preferred concentration of picolinic acid or acceptable derivative for this use is approximately below 0.025% to be classified as a preservative. Of course, greater percentages, e.g. up to 99.9% also would be effective.

Data set [2] is described as follows: Topical treatment of inflammation associated with acne. Type of data set: in vivo. Particulars: 5% to 10% aqueous solution; more than 35 cases, adults and teenagers. From the text: Furthermore, it is believed that the response of cells to stress, such as exposure to UV radiation, chemicals, bacteria, parasites or fungi is associated with the induction of heat shock proteins.

Another data set relates to WI-38 cells. Kind of data set: Growth of WI-38 cells (total cell protein, cell number). The data set is classed as cell-based. As to conditions: 3 mM picolinic acid. As to the method:
(§1) Cells were plated at 1.5×10^5 cells/60-mm dish; 48 hours later, the medium was removed, and new media with or without 3 mM picolinic acid was added. Total cell protein was determined at the indicated times; each point is the average of triplicate measurements from 2 cultures.
(§2) In initial experiments to examine the effects of fusaric acid on cell growth and viability, WI-38 and LoVo cells were incubated for 24 to 72 hours in medium with or without various doses of fusaric acid (0.1-1 mM). The growth of both WI-38 and LoVo cells was inhibited by 500 μM fusaric acid in a time and dose dependent manner, as shown below in Table 2.

A further data set concerns LoVo cells. The experiment in a line: Growth of LoVo cells (total cell protein, cell number, DNA synthesis). As to conditions: 3 mM picolinic acid. The data set is classed as cell-based, human. As to the method: as §1, §2
After 30 hours of treatment with 500 μM fusaric acid, there was a prominent decrease in cell number. DNA synthesis was completely (100%) inhibited by 24 hours. When treated with 500 μM fusaric acid, the majority of the LoVo cells acquired a rounded morphology by 48 hours.
However, after 100 hours, an increase in cell number was noted after 25 additional hours.

The subject of the next data set is papilloma virus. Kind of data set: Topical treatment of ulcerative papilloma virus lesion in a horse. As to conditions: for diameter of the lesion: initially 3 inch. The data set is classed as in vivo. As to the method:
The lesion was progressive, with total loss of hair over the area. The diagnosis was viral disease, i.e. papilloma virus, complicated by fungal infection. The horse was treated with conventional local antibiotic and chemical therapies for about four months.
An aqueous solution of 10% picolinic acid in deionized water was applied every other day with a cotton swab over and around the lesion. The treatment continued for 45 days. The course of the regression of the viral lesion was as follows: […]

Another data set relates to human papilloma viruses. Kind of data set: Topical treatment of common warts. As to conditions: 10% to 20% solution or 10% ointment in Aquaphor. Type of data set: in vivo. On the procedure:
Five patients ranging in age from 11 years to 52 years and each having at least one common wart induced by human papilloma viruses was treated with a topical preparation of picolinic acid The topical preparation was either solution of 10% to 20% picolinic acid in deionized water or a topical ointment wherein 10% picolinic acid is incorporated into Aquaphor, i.e. 1 g of picolinic acid in 10 g of Aquaphor.

A further data set relates to metastatic breast cancer. The experiment in a line: Topical treatment of metastatic breast cancer to skin and bone of the skull. As to conditions: 10% in Aquaphor, changed twice daily, approximately 35 days. Type of data set: in vivo, human. On the procedure: A person with metastatic breast cancer to the skin and bone of the skull was treated with a topical preparation of 10% picolinic acid in Aquaphor. The preparation was applied to the cancerous lesions and to a bandage and changed twice daily. The multiple cancer lesions were approximately 1 to 1.5 cm in diameter.

Data set [3] can be described thus: Topical treatment of psoriasis. The data set is classed as in vivo, human. Particulars: preliminary information. An excerpt: Several patients suffering from proliferative skin disorders such as psoriasis have been included in a recent ongoing study of the anti-proliferative effects of topical picolinic acid. […] The patients may be treated with a topical application of approximately 5% to 20% picolinic acid, or a derivative thereof, in an absorption base. Alternatively, the patient may be treated with a solution containing approximately 5% to 20% picolinic acid, or derivative, in deionized water. The topical preparation may be applied twice a day or in an alternative pharmacologically acceptable regimen.

Data set [4] is described as follows: Nasal spray treatment of upper respiratory infection. The data set is classed as in vivo, human. Particulars: nasal spray 3 mM in physiologic saline, evening and bedtime, upon arising. As to the method: A college student presented with nasal congestion, slight fever, cough and sore throat. The subject began treatment with nasal spray containing 3 mM picolinic acid in physiologic saline vehicle. The subject used one or two sprays in each nostril after evening meal and before bedtime.

The subject of the next data set is osteosarcoma. The experiment in a line: Oral treatment of osteosarcoma in canine. Particulars: 500 mg capsules twice daily, six days after initiating treatment. The data set is classed as in vivo, dog. As to the method: The subject animal was a Bichon Frise dog that was diagnosed by a veterinarian with osteosarcoma. The osteosarcoma had invaded the dog's mandible and was encroaching on the lower portion of the orbit. The veterinarian began treatment with picolinic acid. The dog was administered 500 mg of picolinic acid, in capsules, twice daily. Six days after initiating treatment the veterinarian documented that the osteosarcoma had reduced approximately 40% in size. One week later the veterinarian observed that the tumor looked “necrotic”. The veterinarian incised the skin above the tumor and removed fluid from the center of the tumor.

For data set [5] the following is noted: cited from earlier work.
For data set [6] the following is noted: in a 70 Kg subject; cited from earlier work.
A further data set deals with normal cells. Particulars: longer exposure; most normal cells; cited from earlier work.
Another data set has as its system cells. As to conditions: cited from earlier work.

Structures are written as SMILES.

In the case of `O=C(O)c1ccccn1` [picolinic acid, 2-Pyridine carboxylic acid], in data set [1], the “stability as a preservative” value is on record as “highly stable”. The “treatment of inflammation associated with acne” value in [2] is recorded as “successfully treated”. The “toxic effects on WI-38 cells” value in the data set on WI-38 cells (up to 72 hours of treatment) is “no toxic effects”. The “growth of WI-38 cells” value in the data set on WI-38 cells (within 24 hours) is recorded as “inhibited”. For the same compound, the “reversibility of growth inhibition” value with WI-38 cells (within 24 hours of removal of the agent) is on record as “reversible”. Moreover, the “growth of LoVo cells” value with LoVo cells is recorded as “inhibited”. The lesion appearance entry in the data set on papilloma virus (10% aqueous solution every other day, after 10 days) is recorded as “central necrosis”. Besides, in the data set on papilloma virus (10% aqueous solution, after 20 days), the “diameter of the lesion” value is reported as “approximately 2 inches”. In the data set with papilloma virus (10% aqueous solution, after 30 days), the “diameter of the lesion” value was “about 1 inch”. Moreover, in the data set with papilloma virus (10% aqueous solution, at 45 days), the lesion outcome is recorded as “resolved with some scar tissue”. The recurrence entry in the data set on papilloma virus (three additional months after treatment) is reported as “without evidence of recurring disease”. Besides, the wart outcome in the data set with human papilloma viruses (after approximately 4 to 6 weeks) was “the warts were gone”. Also, the wart appearance result in the data set on human papilloma viruses (after seven days, five patients) is given as “central necrosis of the wart occurred”. Further, the cancer lesion outcome in the data set with metastatic breast cancer is on record as “resolved with scar tissue forming”. Besides, the regression of psoriasis result in data set [3] is reported as “significant effect in inducing regression of the psoriasis”. In data set [4], the upper respiratory symptoms result is “no fever or sore throat symptoms”. The “reduction in size of osteosarcoma” value in the data set on osteosarcoma is listed as “approximately 40%”. Further, in data set [5], the solubility in water result is reported as “readily soluble in water”. Besides, the LD-50 in data set [6] is given as 140 grams. In addition, the “toxic effects in normal cells” value in the data set on normal cells is recorded as “no toxic effects”. Also, in the data set with cells, the “incorporation of iron into the cells” value was “inhibits incorporation of iron into the cells” and the “removal of radioiron from the cells” value was “effectively removes radioiron from the cells”.
